Assay results taken from ChEMBL document CHEMBL4507320, “Data for DCP probe NVS-MALT1” (2021).

What was measured:
[1] = molecular target: Cyclin-dependent kinase-like 1 (Homo sapiens) (UniProt Q00532); conditions: Compound concentration 1000.0 nM
[2] = molecular target: 5-hydroxytryptamine receptor 1B (Homo sapiens) (UniProt P28222); conditions: Compound concentration 10.0 uM
[3] = molecular target: Mitogen-activated protein kinase 14 (Homo sapiens) (UniProt Q16539); conditions: Compound concentration 1000.0 nM
[4] = molecular target: Serine/threonine-protein kinase Nek7 (Homo sapiens) (UniProt Q8TDX7); conditions: Compound concentration 1000.0 nM
[5] = molecular target: Cyclin-dependent kinase 2 homolog (Plasmodium falciparum (isolate 3D7)) (UniProt P61075); conditions: Compound concentration 1000.0 nM
[6] = molecular target: Tyrosine-protein kinase Tec (Homo sapiens) (UniProt P42680); conditions: Compound concentration 1000.0 nM
[7] = molecular target: Aurora kinase B (Homo sapiens) (UniProt Q96GD4); conditions: Compound concentration 1000.0 nM
[8] = molecular target: Insulin-like growth factor 1 receptor (Homo sapiens) (UniProt P08069); conditions: Compound concentration 1000.0 nM
[9] = molecular target: Serine/threonine-protein kinase 16 (Homo sapiens) (UniProt O75716); conditions: Compound concentration 1000.0 nM
[10] = molecular target: Myosin light chain kinase family member 4 (Homo sapiens) (UniProt Q86YV6); conditions: Compound concentration 1000.0 nM
[11] = molecular target: Cyclin-dependent kinase 11A (Homo sapiens) (UniProt Q9UQ88); conditions: Compound concentration 1000.0 nM
[12] = molecular target: Serine/threonine-protein kinase NIM1 (Homo sapiens) (UniProt Q8IY84); conditions: Compound concentration 1000.0 nM
[13] = molecular target: Serine/threonine-protein kinase RIO2 (Homo sapiens) (UniProt Q9BVS4); conditions: Compound concentration 1000.0 nM
[14] = molecular target: Mitogen-activated protein kinase kinase kinase 20 (Homo sapiens) (UniProt Q9NYL2); conditions: Compound concentration 1000.0 nM
[15] = molecular target: SNF-related serine/threonine-protein kinase (Homo sapiens) (UniProt Q9NRH2); conditions: Compound concentration 1000.0 nM
[16] = system: Epidermal growth factor receptor (Homo sapiens), P00533 [G719S]; conditions: Compound concentration 1000.0 nM
[17] = molecular target: Dual specificity protein kinase CLK4 (Homo sapiens) (UniProt Q9HAZ1); conditions: Compound concentration 1000.0 nM
[18] = molecular target: Ephrin type-A receptor 2 (Homo sapiens) (UniProt P29317); conditions: Compound concentration 1000.0 nM
[19] = molecular target: Testis-specific serine/threonine-protein kinase 1 (Homo sapiens) (UniProt Q9BXA7); conditions: Compound concentration 1000.0 nM
[20] = molecular target: Serine/threonine-protein kinase VRK2 (Homo sapiens) (UniProt Q86Y07); conditions: Compound concentration 1000.0 nM
[21] = molecular target: Serine/threonine-protein kinase Sgk1 (Homo sapiens) (UniProt O00141); conditions: Compound concentration 1000.0 nM
[22] = system: Receptor-type tyrosine-protein kinase FLT3 (Homo sapiens), P36888 [D835Y]; conditions: Compound concentration 1000.0 nM
[23] = system: Receptor-type tyrosine-protein kinase FLT3 (Homo sapiens), P36888 [UNDEFINED MUTATION]; conditions: Compound concentration 1000.0 nM
[24] = system: Tyrosine-protein kinase ABL1 (Homo sapiens), P00519 [F317L]; conditions: Compound concentration 1000.0 nM
[25] = system: Mast/stem cell growth factor receptor Kit (Homo sapiens), P10721 [V559D,V654A]; conditions: Compound concentration 1000.0 nM
[26] = molecular target: BDNF/NT-3 growth factors receptor (Homo sapiens) (UniProt Q16620); conditions: Compound concentration 1000.0 nM
[27] = molecular target: SRSF protein kinase 3 (Homo sapiens) (UniProt Q9UPE1); conditions: Compound concentration 1000.0 nM
[28] = molecular target: Serine/threonine-protein kinase Chk1 (Homo sapiens) (UniProt O14757); conditions: Compound concentration 1000.0 nM
[29] = molecular target: Eukaryotic translation initiation factor 2-alpha kinase 1 (Homo sapiens) (UniProt Q9BQI3); conditions: Compound concentration 1000.0 nM
[30] = molecular target: Sigma intracellular receptor 2 (Homo sapiens, UniProt Q5BJF2); conditions: Compound concentration 10.0 uM
[31] = molecular target: Leucine-rich repeat serine/threonine-protein kinase 2 (Homo sapiens) (UniProt Q5S007); conditions: Compound concentration 1000.0 nM
[32] = system: Tyrosine-protein kinase ABL1 (Homo sapiens), P00519 [F317I]; conditions: Compound concentration 1000.0 nM
[33] = molecular target: MAP kinase-activated protein kinase 5 (Homo sapiens) (UniProt Q8IW41); conditions: Compound concentration 1000.0 nM
[34] = molecular target: Leukocyte tyrosine kinase receptor (Homo sapiens) (UniProt P29376); conditions: Compound concentration 1000.0 nM
[35] = molecular target: Non-receptor tyrosine-protein kinase TNK1 (Homo sapiens) (UniProt Q13470); conditions: Compound concentration 1000.0 nM
[36] = molecular target: BMP-2-inducible protein kinase (Homo sapiens) (UniProt Q9NSY1); conditions: Compound concentration 1000.0 nM
[37] = molecular target: Serine/threonine-protein kinase RIO3 (Homo sapiens) (UniProt O14730); conditions: Compound concentration 1000.0 nM
[38] = molecular target: Beta-adrenergic receptor kinase 1 (Homo sapiens) (UniProt P25098); conditions: Compound concentration 1000.0 nM
[39] = molecular target: Macrophage colony-stimulating factor 1 receptor (Homo sapiens) (UniProt P07333); conditions: Compound concentration 1000.0 nM
[40] = molecular target: Glycogen synthase kinase-3 alpha (Homo sapiens) (UniProt P49840); conditions: Compound concentration 1000.0 nM
[41] = molecular target: Mitogen-activated protein kinase kinase kinase 19 (Homo sapiens) (UniProt Q56UN5); conditions: Compound concentration 1000.0 nM
[42] = molecular target: Myosin light chain kinase (Homo sapiens) (UniProt Q32MK0); conditions: Compound concentration 1000.0 nM
[43] = system: Epidermal growth factor receptor (Homo sapiens), P00533 [UNDEFINED MUTATION]; conditions: Compound concentration 1000.0 nM
[44] = molecular target: Serine/threonine-protein kinase MRCK alpha (Homo sapiens) (UniProt Q5VT25); conditions: Compound concentration 1000.0 nM
[45] = molecular target: Ribosomal protein S6 kinase alpha-4 (Homo sapiens) (UniProt O75676); conditions: Compound concentration 1000.0 nM

Chain of Leukocyte tyrosine kinase receptor (Homo sapiens) (P29376 whole entry): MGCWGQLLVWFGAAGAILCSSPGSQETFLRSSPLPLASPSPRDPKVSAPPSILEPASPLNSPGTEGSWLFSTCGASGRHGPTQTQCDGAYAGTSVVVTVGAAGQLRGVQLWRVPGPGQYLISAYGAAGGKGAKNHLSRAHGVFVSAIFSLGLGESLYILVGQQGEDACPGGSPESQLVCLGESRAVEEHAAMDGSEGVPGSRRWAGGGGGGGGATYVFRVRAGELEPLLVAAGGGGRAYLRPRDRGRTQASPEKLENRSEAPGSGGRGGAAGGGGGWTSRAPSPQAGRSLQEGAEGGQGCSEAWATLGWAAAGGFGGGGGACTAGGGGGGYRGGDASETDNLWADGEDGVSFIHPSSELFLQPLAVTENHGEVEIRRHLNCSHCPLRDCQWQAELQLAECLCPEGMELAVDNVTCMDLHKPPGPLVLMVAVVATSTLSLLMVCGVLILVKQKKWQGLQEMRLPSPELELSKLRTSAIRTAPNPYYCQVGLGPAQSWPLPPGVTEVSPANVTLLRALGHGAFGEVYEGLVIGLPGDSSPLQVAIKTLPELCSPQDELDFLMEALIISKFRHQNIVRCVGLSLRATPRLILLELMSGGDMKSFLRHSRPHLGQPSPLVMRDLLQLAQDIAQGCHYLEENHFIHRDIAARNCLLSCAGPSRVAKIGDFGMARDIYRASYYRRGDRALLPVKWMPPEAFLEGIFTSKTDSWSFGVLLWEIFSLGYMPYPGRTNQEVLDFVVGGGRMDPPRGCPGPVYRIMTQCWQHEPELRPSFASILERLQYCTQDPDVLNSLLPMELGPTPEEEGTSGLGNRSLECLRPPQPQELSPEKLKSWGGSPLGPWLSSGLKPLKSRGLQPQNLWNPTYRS
Chain of Serine/threonine-protein kinase VRK2 (Homo sapiens) (Q86Y07 whole entry): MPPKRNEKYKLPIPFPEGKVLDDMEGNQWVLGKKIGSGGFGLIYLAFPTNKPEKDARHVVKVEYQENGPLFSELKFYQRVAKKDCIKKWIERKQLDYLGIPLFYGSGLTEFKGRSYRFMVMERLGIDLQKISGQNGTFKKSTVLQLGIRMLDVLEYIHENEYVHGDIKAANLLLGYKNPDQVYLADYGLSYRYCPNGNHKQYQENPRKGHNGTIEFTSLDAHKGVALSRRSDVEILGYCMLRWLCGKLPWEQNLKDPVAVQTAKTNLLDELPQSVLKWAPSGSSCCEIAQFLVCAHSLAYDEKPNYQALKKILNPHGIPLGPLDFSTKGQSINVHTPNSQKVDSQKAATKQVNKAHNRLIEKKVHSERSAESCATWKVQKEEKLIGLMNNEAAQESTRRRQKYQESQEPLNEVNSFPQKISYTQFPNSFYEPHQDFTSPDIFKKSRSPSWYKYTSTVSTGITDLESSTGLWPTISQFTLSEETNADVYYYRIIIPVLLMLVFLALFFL
Chain of Aurora kinase B (Homo sapiens) (Q96GD4 whole entry): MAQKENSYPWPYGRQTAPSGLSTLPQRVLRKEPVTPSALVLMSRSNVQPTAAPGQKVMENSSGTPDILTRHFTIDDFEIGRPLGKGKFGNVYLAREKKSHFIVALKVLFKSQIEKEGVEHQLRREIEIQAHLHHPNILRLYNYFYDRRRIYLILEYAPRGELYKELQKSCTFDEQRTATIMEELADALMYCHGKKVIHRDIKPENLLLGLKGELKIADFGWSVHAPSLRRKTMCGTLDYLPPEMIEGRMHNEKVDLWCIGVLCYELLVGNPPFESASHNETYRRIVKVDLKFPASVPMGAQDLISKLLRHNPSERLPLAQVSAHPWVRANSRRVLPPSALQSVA
Chain of Beta-adrenergic receptor kinase 1 (Homo sapiens) (P25098 whole entry): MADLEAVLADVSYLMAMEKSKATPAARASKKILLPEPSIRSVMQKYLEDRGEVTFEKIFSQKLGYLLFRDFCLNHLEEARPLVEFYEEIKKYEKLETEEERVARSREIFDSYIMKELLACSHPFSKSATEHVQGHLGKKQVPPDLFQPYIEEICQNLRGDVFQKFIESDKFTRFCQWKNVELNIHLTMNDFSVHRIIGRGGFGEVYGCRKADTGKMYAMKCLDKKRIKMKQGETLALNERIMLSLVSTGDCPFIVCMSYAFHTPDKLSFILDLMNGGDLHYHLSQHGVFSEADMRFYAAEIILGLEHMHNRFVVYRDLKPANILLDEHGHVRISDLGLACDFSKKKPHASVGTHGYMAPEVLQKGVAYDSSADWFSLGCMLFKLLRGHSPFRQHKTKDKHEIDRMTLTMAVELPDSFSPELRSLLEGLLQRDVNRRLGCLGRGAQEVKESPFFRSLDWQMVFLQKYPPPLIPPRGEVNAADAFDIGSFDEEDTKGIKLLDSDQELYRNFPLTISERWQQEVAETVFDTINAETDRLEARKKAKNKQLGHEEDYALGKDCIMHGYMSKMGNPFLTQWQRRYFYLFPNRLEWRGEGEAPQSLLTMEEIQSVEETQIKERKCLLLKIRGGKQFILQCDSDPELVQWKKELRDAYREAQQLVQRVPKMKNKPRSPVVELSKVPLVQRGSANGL
Chain of Testis-specific serine/threonine-protein kinase 1 (Homo sapiens) (Q9BXA7 whole entry): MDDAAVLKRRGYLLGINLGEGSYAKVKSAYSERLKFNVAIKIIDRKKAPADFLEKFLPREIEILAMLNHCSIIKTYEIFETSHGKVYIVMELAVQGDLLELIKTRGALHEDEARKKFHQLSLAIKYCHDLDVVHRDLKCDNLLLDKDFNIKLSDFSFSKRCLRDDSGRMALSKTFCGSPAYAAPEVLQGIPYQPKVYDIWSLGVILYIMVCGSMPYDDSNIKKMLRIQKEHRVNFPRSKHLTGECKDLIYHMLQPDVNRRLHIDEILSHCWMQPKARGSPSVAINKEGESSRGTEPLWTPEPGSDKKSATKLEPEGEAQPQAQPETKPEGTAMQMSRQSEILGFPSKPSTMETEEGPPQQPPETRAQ
Chain of Myosin light chain kinase family member 4 (Homo sapiens) (Q86YV6 whole entry): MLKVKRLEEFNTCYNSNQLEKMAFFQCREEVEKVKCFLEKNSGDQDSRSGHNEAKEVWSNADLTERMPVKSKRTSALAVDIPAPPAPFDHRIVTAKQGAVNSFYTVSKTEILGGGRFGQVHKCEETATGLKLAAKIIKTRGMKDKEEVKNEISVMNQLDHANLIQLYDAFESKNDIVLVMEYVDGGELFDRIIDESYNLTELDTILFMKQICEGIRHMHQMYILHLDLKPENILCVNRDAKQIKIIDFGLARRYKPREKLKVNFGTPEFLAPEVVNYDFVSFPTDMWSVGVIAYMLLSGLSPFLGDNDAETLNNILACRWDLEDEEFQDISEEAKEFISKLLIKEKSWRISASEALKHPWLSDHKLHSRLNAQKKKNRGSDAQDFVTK
Chain of Serine/threonine-protein kinase 16 (Homo sapiens) (O75716 whole entry): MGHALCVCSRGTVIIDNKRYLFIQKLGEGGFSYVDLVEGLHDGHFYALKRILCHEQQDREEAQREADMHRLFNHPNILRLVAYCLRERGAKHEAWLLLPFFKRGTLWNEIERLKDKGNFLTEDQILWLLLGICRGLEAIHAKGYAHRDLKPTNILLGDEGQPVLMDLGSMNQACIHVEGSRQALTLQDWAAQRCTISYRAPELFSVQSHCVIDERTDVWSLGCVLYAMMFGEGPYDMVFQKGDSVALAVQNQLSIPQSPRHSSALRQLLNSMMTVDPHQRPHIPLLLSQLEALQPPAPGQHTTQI
Chain of Tyrosine-protein kinase ABL1 (Homo sapiens), P00519 [F317I] (P00519 whole entry F317I): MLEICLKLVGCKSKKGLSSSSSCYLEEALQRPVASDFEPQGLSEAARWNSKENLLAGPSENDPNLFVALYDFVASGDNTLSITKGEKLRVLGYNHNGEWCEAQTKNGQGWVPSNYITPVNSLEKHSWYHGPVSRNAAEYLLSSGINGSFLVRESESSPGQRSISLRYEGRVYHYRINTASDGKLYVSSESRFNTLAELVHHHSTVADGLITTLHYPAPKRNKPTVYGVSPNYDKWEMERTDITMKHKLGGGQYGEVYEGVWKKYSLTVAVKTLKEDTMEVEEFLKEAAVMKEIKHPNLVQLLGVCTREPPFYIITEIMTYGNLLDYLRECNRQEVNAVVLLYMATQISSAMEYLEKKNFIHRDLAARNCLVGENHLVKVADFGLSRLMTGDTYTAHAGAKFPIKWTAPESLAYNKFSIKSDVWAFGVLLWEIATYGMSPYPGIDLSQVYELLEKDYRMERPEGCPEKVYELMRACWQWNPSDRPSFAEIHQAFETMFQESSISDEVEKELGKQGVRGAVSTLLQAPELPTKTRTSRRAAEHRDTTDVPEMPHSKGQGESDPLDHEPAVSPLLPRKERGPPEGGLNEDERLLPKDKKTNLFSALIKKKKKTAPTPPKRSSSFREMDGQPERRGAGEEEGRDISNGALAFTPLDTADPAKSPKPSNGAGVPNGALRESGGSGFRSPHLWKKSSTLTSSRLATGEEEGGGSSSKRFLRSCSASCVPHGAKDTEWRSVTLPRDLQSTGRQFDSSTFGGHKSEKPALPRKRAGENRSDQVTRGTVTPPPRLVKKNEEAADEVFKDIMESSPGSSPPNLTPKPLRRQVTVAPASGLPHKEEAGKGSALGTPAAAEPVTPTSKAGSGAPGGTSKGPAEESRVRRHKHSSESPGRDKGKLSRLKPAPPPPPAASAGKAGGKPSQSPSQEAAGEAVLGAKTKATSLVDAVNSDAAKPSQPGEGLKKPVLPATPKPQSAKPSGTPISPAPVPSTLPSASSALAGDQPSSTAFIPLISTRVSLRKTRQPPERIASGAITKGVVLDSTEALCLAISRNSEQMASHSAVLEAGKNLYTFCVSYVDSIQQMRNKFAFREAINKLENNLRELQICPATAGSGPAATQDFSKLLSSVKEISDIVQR
Chain of 5-hydroxytryptamine receptor 1B (Homo sapiens) (P28222 whole entry): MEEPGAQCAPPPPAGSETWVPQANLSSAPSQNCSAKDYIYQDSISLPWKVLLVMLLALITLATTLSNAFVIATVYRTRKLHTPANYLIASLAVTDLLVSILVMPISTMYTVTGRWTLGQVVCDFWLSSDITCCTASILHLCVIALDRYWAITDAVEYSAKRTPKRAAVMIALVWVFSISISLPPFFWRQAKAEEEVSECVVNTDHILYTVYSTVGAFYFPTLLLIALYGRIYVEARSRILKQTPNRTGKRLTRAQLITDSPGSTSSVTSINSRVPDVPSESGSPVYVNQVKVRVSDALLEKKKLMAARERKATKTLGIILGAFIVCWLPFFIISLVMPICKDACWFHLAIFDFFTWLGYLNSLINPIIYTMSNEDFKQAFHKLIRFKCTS

## CO[C@@H](C)c1c(Nc2ccc([C@@H](N(C)C(=O)C3CCS(=O)(=O)CC3)C(F)(F)F)cc2)cnc2cc(Cl)nn12 [NVS-MALT1-C]
[1]
  residual activity: 74%
[2]
  inhibition: 11.4%
[3]
  residual activity: 83%
[4]
  residual activity: 91%
[5]
  residual activity: 100%
[6]
  residual activity: 82%
[7]
  residual activity: 74%
[8]
  residual activity: 97%
[9]
  residual activity: 100%
[10]
  residual activity: 83%
[11]
  residual activity: 100%
[12]
  residual activity: 85%
[13]
  residual activity: 89%
[14]
  residual activity: 100%
[15]
  residual activity: 100%
[16]
  residual activity: 96%
[17]
  residual activity: 92%
[18]
  residual activity: 83%
[19]
  residual activity: 100%
[20]
  residual activity: 100%
[21]
  residual activity: 89%
[22]
  residual activity: 42%
[23]
  residual activity: 66%
[24]
  residual activity: 100%
[25]
  residual activity: 88%
[26]
  residual activity: 100%
[27]
  residual activity: 100%
[28]
  residual activity: 95%
[29]
  residual activity: 100%
[30]
  inhibition: 57.1%
[31]
  residual activity: 100%
[32]
  residual activity: 100%
[33]
  residual activity: 100%
[34]
  residual activity: 95%
[35]
  residual activity: 87%
[36]
  residual activity: 91%
[37]
  residual activity: 90%
[38]
  residual activity: 92%
[39]
  residual activity: 72%
[40]
  residual activity: 94%
[41]
  residual activity: 77%
[42]
  residual activity: 87%
[43]
  residual activity: 90%
[44]
  residual activity: 94%
[45]
  residual activity: 100%

## CO[C@@H](C)c1c(Nc2ccc([C@H](N(C)C(=O)C3CCS(=O)(=O)CC3)C(F)(F)F)cc2)cnc2cc(Cl)nn12 [NVS-MALT1]
[1]
  residual activity: 57%
[2]
  inhibition: 12.5%
[3]
  residual activity: 88%
[4]
  residual activity: 75%
[5]
  residual activity: 100%
[6]
  residual activity: 84%
[7]
  residual activity: 91%
[8]
  residual activity: 100%
[9]
  residual activity: 75%
[10]
  residual activity: 86%
[11]
  residual activity: 93%
[12]
  residual activity: 79%
[13]
  residual activity: 90%
[14]
  residual activity: 100%
[15]
  residual activity: 100%
[16]
  residual activity: 100%
[17]
  residual activity: 94%
[18]
  residual activity: 100%
[19]
  residual activity: 100%
[20]
  residual activity: 100%
[21]
  residual activity: 94%
[22]
  residual activity: 59%
[23]
  residual activity: 71%
[24]
  residual activity: 100%
[25]
  residual activity: 92%
[26]
  residual activity: 100%
[27]
  residual activity: 100%
[28]
  residual activity: 91%
[29]
  residual activity: 100%
[30]
  inhibition: 49.1%
[31]
  residual activity: 100%
[32]
  residual activity: 100%
[33]
  residual activity: 100%
[34]
  residual activity: 98%
[35]
  residual activity: 100%
[36]
  residual activity: 89%
[37]
  residual activity: 82%
[38]
  residual activity: 84%
[39]
  residual activity: 77%
[40]
  residual activity: 86%
[41]
  residual activity: 91%
[42]
  residual activity: 84%
[43]
  residual activity: 100%
[44]
  residual activity: 86%
[45]
  residual activity: 100%
